The values that follow come from publication PMC7023222, “Ionic Liquid Forms of the Antimalarial Lumefantrine in Combination with LFCS Type IIIB Lipid-Based Formulations Preferentially Increase Lipid Solubility, In Vitro Solubilization Behavior and In Vivo Exposure” (Pharmaceutics, 2019).

Where “and” joins values, the source holds several entries; their conditions need not be identical. Equal entries are not always repeated. Where two headings read alike, the source gives them in different places.

Data set [1] is described as follows: Supersaturation during in vitro dispersion/digestion testing. Particulars: for maximum supersaturation ratio SR^Mdisp (APmax/APdigest): dispersion, time 0 min; for maximum supersaturation ratio SR^Mdig (APmax/APdigest): end of digestion, 60 min. The data set is classed as physicochemical. On the procedure:
Supersaturation During In Vitro Testing. The degree of supersaturation of drug concentrations in the aqueous phase during formulation dispersion/digestion was assessed by comparing the measured aqueous phase concentration to equilibrium drug solubility in blank aqueous phase obtained by dispersion and digestion of blank (i.e., non-drug loaded) formulation under identical conditions. Due to the physical state of lumefantrine docusate (i.e., an amorphous semi-solid), the equilibrium solubility assessment was conducted by dissolving 3 mg of IL in 10 µL of ethanol in a microcentrifuge tube and then adding 200 mg of aqueous phase obtained from the blank digestions (n = 3 for each time point for each formulation). The contents were subsequently vortex-mixed for 30 s. […] Supersaturation was assessed at 4 time points during the in vitro dispersion and digestion tests (0 min (end dispersion), and 5, 30, and 60 min (post digestion)) for the Type II-MC, IIIB-MC, IIIB-LC, and IV formulations.
The supersaturation ratio (SR) provides an indication of thermodynamic activity and the likelihood of either drug precipitation, or enhanced absorption from an LBF, where the higher the number, the more supersaturated and therefore the more likely to precipitate during in vitro digestion. The maximum supersaturation ratio (SR^M) provides a measure of the maximum supersaturation pressure that would be generated by digestion of an LBF, assuming no precipitation and is calculated from the following:(1) SR^M=APmax/APdigest where APmax is the maximum possible aqueous phase concentration of drug during the in vitro dispersion and digestion test (i.e., in the absence of any precipitation), and APdigest is the equilibrium solubility of the drug in blank aqueous phase (i.e., where the aqueous phase was obtained from a digestion of blank LBF). Williams et al. have previously proposed that sustainable supersaturation most commonly occurs when SR^M < 3, and that exceeding this threshold increases the likelihood of drug precipitation during in vitro dispersion and digestion tests. Only the Type II-MC, IIIB-MC, IIIB-LC, and IV formulations were evaluated as these were the four formulations chosen to proceed to the in vivo bioavailability studies. The figures also depict APmax, as well as the drug solubility in the aqueous colloidal phase of the blank LBF (APdigest). […] This was most apparent at early time points for the Type II-MCF formulation where SR^M was ~20 and at later time points post digestion for the Type IIIB-MCF where SR^M was >40. […] Similarly, the SR^M for the Type IIIB-MCF at the end of digestion was the highest, but majority of lumefantrine docusate remained solubilized at 60 min (69% solubilized).

Data set [2] can be described thus: In vitro dispersion and digestion test of LBFs (drug solubilization). The data set is classed as physicochemical. Particulars: for % of drug present in the aqueous phase compared to total drug loading: end of digestion phase (60 min), loading 80% of equilibrium solubility, n = 3. On the procedure:
In Vitro Drug Solubilization. […] Drug loading in each formulation was at 80% of the equilibrium solubility of the drug or API-IL in that formulation to maintain a consistent thermodynamic activity across all LBFs. In vitro dispersion and digestion experiments were conducted using a pH-stat apparatus (Metrohm® AG, Herisau, Switzerland), which comprised a Titrando 802 propeller stirrer/804 Ti Stand combination, a glass pH electrode (iUnitrode), and two 800 Dosino dosing units coupled to 10 mL autoburettes (Metrohm® AG). The pH-stat was connected to a PC and operated via Tiamo 2.0 software (Metrohm®). […] The pancreatic enzyme was prepared by mixing 1 g of porcine pancreatin with 5 mL of lipolysis buffer and 20 µL of 5 M NaOH. After mixing, this was then centrifuged at 2880× g at 5 °C for 10 min (Crown Scientific, Eppendorf AG Centrifuge 5804 R, Sydney Australia) and the supernatant used as the enzyme solution. The lipolysis buffer was prepared by dissolving 0.474 g of tris maleate, 0.206 g of CaCl2·H2O, and 8.775 g of NaCl in one liter of distilled water to form a 2 mM tris maleate 1.4 mM CaCl2·H2O 150 mM NaCl buffer; the pH was adjusted to 6.5 using NaOH. The micellar solution was prepared by dissolving 0.783 g of NaTDC and 0.291 g of PC in 500 mL of lipolysis buffer to form a 3 mM NaTDC 0.75 mM PC solution. […] This drop in pH was detected by the pH-stat controller, which then titrated the FA produced using an autoburette that added NaOH to keep the pH at a set point (0.6 M NaOH for MCFs, and 0.2 M NaOH for LCFs). By knowing the quantity of NaOH added and assuming stoichiometric titration, this indirectly quantified the extent of FA production (as a measure of digestion). […] The mass of the drug recovered in the aqueous phase and the pellet phase was then quantified by HPLC [35, 36]. The supernatant and pellet samples were diluted with acetonitrile (1:10 v/v) and then mobile phase (1:10 v/v), and lumefantrine concentrations in the samples determined using HPLC [35, 36, 37, 38].

Data set [3] can be described thus: Oral bioavailability study in rats. It counts as in vivo, male Sprague-Dawley rats.
Description: Oral Bioavailability Studies. […] Experiments were conducted in fasted male Sprague-Dawley rats (240–320 g). The day prior to the study, the rats were anaesthetized with isoflurane and the right carotid artery was surgically cannulated with polyethylene tubing to facilitate blood collection (procedure described previously) [40]. Animals were allowed to recover overnight and were fasted up to 12 h prior to and 8 h after dose administration, with water provided ad libitum. The rats were fed 8 h after dosing.
Animals were then administered a further 0.5 mL of water. […] The aqueous suspension comprised 0.5% w/v sodium carboxymethylcellulose, 0.4% w/v Tween 80, and 0.9% NaCl in water.
Blood samples were collected via the carotid artery cannula at pre-dose, 0.5, 1, 2, 3, 4, 6, 8, 10, and 24 h after oral administration of the formulations. Blood samples were centrifuged at 6700× g for 5 min and plasma was collected and stored at −20 °C until assayed by LC-MS. Statistically significant differences between formulations were determined by one-way analysis of variance (ANOVA) at a test significance level of α ≤ 0.05, followed by a Tukey’s multiple comparisons test.
Plasma Sample Preparation and Analysis. Lumefantrine concentrations in rat plasma were assayed via LC-MS using a modification of a previously published assay for lumefantrine [41]. […] Plasma samples or calibration standards (50 µL) were spiked with 10 µL of internal standard (halofantrine hydrochloride, 1000 ng/mL in 1:1 v/v water: acetonitrile) followed by vortex mixing for 10 s. To precipitate plasma proteins, acetonitrile (200 µL) was added and samples vortex mixed for 1 min. The samples were then allowed to stand at room temperature for 30 min. After centrifugation at 10,000× g for 10 min at room temperature, 150 µL of supernatant was transferred into vials for analysis.
Lumefantrine plasma samples were analyzed using a Shimadzu LCMS-8050 system (Shimadzu Scientific Instruments, Kyoto, Japan) consisting of a CBM-20A system controller, a DGU-20A5R degassing unit, two Nexera X2 LC-30 AD liquid chromatograph pumps, a Nexera X2 SIL-30AC autosampler, a CTO-20A column oven (held at 40 °C), and a triple quadrupole mass spectrometer with an electrospray ionization (ESI) interface. Data acquisition and processing was performed using LC-MS Solutions software (Shimadzu, Kyoto, Japan). The desolvation line (DL) and heat block were kept at 250 °C and 400 °C, respectively. The nebulizing gas flow and drying gas flow rates were 3.0 L/min and 10.0 L/min, respectively. Mobile phase A was Milli-Q water containing 0.1% w/v formic acid, and mobile phase B was acetonitrile containing 0.1% w/v formic acid. […] Mobile phase B was then held at 80% for 0.5 min, followed by a linear decrease to 30% over the next 0.5 min after which conditions were held for another 0.5 min.
How the values of data set [4] were obtained:
Equilibrium Solubility Studies. […] Each equilibrium solubility experiment was completed in triplicate. Equilibrium solubility was defined when solubility measured across two consecutive days varied less than 5%. The samples were allowed to equilibrate at 37 °C and were vortex-mixed twice a day to ensure the compounds were well dispersed in the LBF. The samples were left to equilibrate for at least 3 days. […] At each time point, samples were then centrifuged at 37 °C (14,800 rpm (21,000× g), Thermo Scientific, Heraeus Pico 21 Centrifuge) and aliquots of 20 mg were taken from the supernatant and dissolved in 1 mL of chloroform: methanol (2:1, v/v). The chloroform: methanol solution was then diluted 20-fold with water: acetonitrile (1:1, v/v). The samples were then assayed by HPLC to determine the concentration of compound in formulation.

Details of data set [5]: method as in PMID 30376336. The settings on record: cited from earlier work.
The conditions of data set [6]: cited from earlier work.
Details of data set [7]: method as in PMID 23531442. The settings on record: cited from earlier work.

In the case of `CCCCC(CC)COC(=O)CC(C(=O)OCC(CC)CCCC)S(=O)(=O)O.CCCCN(CCCC)CC(O)c1cc(Cl)cc2c1-c1ccc(Cl)cc1C2=Cc1ccc(Cl)cc1` (racemic) [lumefantrine docusate], the “maximum supersaturation ratio SR^Mdisp (APmax/APdigest)” value in data set [1] (Type II-MCF) is ~ 20 and 19.9; in data set [1] (Type IIIB-LCF), 3.6; in data set [1] (Type IIIB-MCF), 5.7; in data set [1] (Type IV) it was 6.3. In data set [1] (Type II-MCF, during dispersion), the “supersaturation ratio SR (measured aqueous phase concentration / equilibrium solubility in blank aqueous phase)” value is 5.5. Besides, the “maximum supersaturation ratio SR^Mdig (APmax/APdigest)” value in data set [1] (Type II-MCF) was 8.0; in data set [1] (Type IIIB-LCF) it was 7.9; in data set [1] (Type IIIB-MCF), > 40 and 43.2; in data set [1] (Type IV), 8.1. Besides, in data set [1] (Type IV formulation), the “supersaturation throughout the in vitro test” value is “no supersaturation was evident”. In addition, the “maximum supersaturation ratio SR^M” value in data set [1] (in all cases: Type II-MC, IIIB-MC, IIIB-LC and IV formulations) is recorded as “higher than 3”. For the same molecule, the entries for the “% of drug present in the aqueous phase compared to total drug loading” value in data set [2] (Type IIIB-LCF) and in data set [2] (Type IIIB-MCF) were 89% and 69%, respectively. In addition, the “drug concentration in the aqueous phase, fold higher than the equivalent lumefantrine free base formulations” value in data set [2] (after dispersion and digestion, range over all LBFs) is recorded as 2-to-55 fold. For the same molecule, the “exposure, fold enhanced when compared to the free base” value in data set [3] (IL in LBF vs free base suspensions 85 mg/kg) is “up to 50 fold”. The “increase in exposure after oral administration compared to aqueous suspension of the free base” value in data set [3] (Type IIIB LC formulation 65 mg/kg vs aqueous suspension 85 mg/kg) is listed as ~ 50 fold. Further, in data set [3] (Type IIIB LC formulation 65 mg/kg vs free base suspension in Type IIIB-LCF 85 mg/kg), the “increase in exposure after oral administration compared to lipid suspension of the free base” value was ~ 10 fold. Besides, the “systemic exposure (AUC 0 to 24 h), statistical comparison” value in data set [3] (Type IIIB-LCF 65 mg/kg, one-way ANOVA, p < 0.05, n = 4) is “significantly higher exposure than all other formulations tested”. In addition, the “systemic exposure (AUC 0 to 24 h), statistical comparison with both free base suspensions” value in data set [3] (Type IIIB-MCF 65 mg/kg, one-way ANOVA, p < 0.05, n = 4) was “significantly higher exposure”. The “miscibility in the Type IV formulation” value in data set [4] is given as “miscible”. In data set [4], the “solubility in LBF, fold higher than lumefantrine free base” value is 2- to 80 fold. Moreover, the “solubility in the Type IV formulation (proportions)” value in data set [4] is listed as > 1:1 w/w.
For `CCCCC(CC)COC(=O)CC(C(=O)OCC(CC)CCCC)S(=O)(=O)O.COc1cc2nccc(Oc3ccc(NC(=O)C4(C(=O)Nc5ccc(F)cc5)CC4)cc3)c2cc1OC` [Cabozantinib docusate, cabozantinib docusate], the “bioavailability, fold enhanced compared to an aqueous suspension of cabozantinib free base” value in data set [5] (long-chain SEDDS) was 1.8 fold; in data set [5] (medium-chain SEDDS) it was 1.5 fold.
Regarding `C(=C\c1ccccc1)/CN1CCN(C(c2ccccc2)c2ccccc2)CC1.CCCCCCCCCCOS(=O)(=O)O` [cinnarizine decyl sulfate], in data set [6] (rats, SEDDS formulation), the “exposure, fold higher than equivalent dose of cinnarizine free base as a suspension in the same SEDDS formulation” value is given as ~ 2 fold.
As for `CCC(C)n1ncn(-c2ccc(N3CCN(c4ccc(OCC5COC(Cn6cncn6)(c6ccc(Cl)cc6Cl)O5)cc4)CC3)cc2)c1=O.CCCCC(CC)COC(=O)CC(C(=O)OCC(CC)CCCC)S(=O)(=O)O` (stereo not shown) [itraconazole docusate], in data set [6] (rat, in vivo), the “exposure compared with the commercial formulation Sporanox” value is “greater exposure” and the “exposure, fold higher than an itraconazole suspension of equal dose” value is ~ 20 fold.
With `CCCCN(CCCC)CC(O)c1cc(Cl)cc2c1-c1ccc(Cl)cc1/C2=C/c1ccc(Cl)cc1` (stereo not shown) [lumefantrine], the oral bioavailability in data set [7] is 4–11%.
